Data reported in patent US9567569B2, “Methods of culturing and expanding mesenchymal stem cells” (Gamida Cell Ltd., priority 2012, dated 2017).
Entries after “also recorded” stand apart in the source; their conditions may differ.

Assays:
[1] = test system: Human bone marrow derived mesenchymal cells; experiment: Expansion of mesenchymal stem cells in culture in the presence or absence of SR1 (cell counts, doubling time); type: cell-based
Experimental: (§1) Isolation—Human bone marrow derived mesenchymal cells were isolated based on their plastic adherence potential in expansion medium containing: High glucose DMEM and 10% Fetal Bovine Serum (FBS, Hyclone, Logan, Utah, USA), 0.05 mg/ml Gentamicin (Sigma) and 2 mM L-glutamine (Biological Industries, Israel). Cells were allowed to adhere for 3-4 days and non-adherent cells were washed out with medium changes. Expansion—Mesenchymal stem cells were isolated using plastic adherence method, as described above and cultured for several passages in a medium which comprises fetal bovine serum in the presence or absence of SR1 for three passages (StemRegenin1, BioVision cat#1967-1). Three concentrations 250, 1000 and 2500 nM of SR1 were examined. At about 80% confluence, adherent cells were collected following trypsin treatment, counted, characterized and re-seeded at a concentration of 1×10^3 cells/cm^2.

[2] = test system: Human bone marrow derived mesenchymal cells; experiment: FACS measurement of CD45, CD105 and VCAM1/CD106 on cultured mesenchymal stem cells; type: cell-based; details: with vs without SR1 under identical conditions
Experimental: as §1, with “Measurement of CD45, CD105” for “Three concentrations 250, 1000”, “VCAM1/CD106: following Trypsin treatment the” for “2500 nM of SR1 were examined. At about 80% confluence, adherent”, “analyzed for CD45, CD105 or CD106 expression in FACS using anti-human CD45 FITC, CD105 PE or CD106 APC antibodies.” for “collected following trypsin treatment, counted, characterized and re-seeded at a concentration of 1×10^3 cells/cm^2.”

CD34+ cells = details: cited from earlier work
[3] = biological target: T1, aryl hydrocarbon receptor (AhR) (Homo sapiens, UniProt P35869); details: cited from earlier work
T1 sequence (P35869 11-848): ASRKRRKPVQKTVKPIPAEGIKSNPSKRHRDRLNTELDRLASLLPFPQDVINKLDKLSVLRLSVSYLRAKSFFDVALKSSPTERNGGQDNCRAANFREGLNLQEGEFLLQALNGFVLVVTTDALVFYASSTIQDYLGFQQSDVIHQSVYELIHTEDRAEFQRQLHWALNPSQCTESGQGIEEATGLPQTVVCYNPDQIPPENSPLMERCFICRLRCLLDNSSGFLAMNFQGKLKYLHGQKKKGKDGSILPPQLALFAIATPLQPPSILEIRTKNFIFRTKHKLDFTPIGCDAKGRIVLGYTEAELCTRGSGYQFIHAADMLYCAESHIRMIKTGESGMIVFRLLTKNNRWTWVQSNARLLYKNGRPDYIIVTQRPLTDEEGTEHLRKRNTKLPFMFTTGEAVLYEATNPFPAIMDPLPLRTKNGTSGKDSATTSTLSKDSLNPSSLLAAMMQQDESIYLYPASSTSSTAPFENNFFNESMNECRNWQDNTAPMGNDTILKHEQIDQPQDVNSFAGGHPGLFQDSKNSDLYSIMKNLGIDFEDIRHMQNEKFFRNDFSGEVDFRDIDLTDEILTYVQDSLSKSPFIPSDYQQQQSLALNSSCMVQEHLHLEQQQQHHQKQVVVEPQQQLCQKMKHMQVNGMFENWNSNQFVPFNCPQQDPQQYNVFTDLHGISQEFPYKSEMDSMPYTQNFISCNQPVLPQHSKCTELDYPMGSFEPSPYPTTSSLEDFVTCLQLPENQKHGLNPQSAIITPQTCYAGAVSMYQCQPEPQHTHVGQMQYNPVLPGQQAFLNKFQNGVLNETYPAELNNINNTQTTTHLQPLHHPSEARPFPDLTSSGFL

## CC(C)n1cnc2c(NCCc3ccc(O)cc3)nc(-c3csc4ccccc34)nc21 [SR1, 4-(2-(2-(benzo[b]thiophen-3-yl)-9-isopropyl-9H-purin-6-ylamino)ethyl)phenol]
[1]; SR1 250, 1000 and 2500 nM vs control, three passages, FIGS. 1-3
  effect on the proliferation of mesenchymal stem cells (cumulative count): proliferate more rapidly; also recorded: positive effect
[1]; of 250, 1000 and 2500 nM examined
  most effective concentration for proliferation of mesenchymal stem cells: 250 nM
[1]; passage 2, with vs without SR1, FIG. 3
  doubling time of mesenchymal stem cells: decreased
[1]; with vs without SR1
  time for cultures to reach confluence: substantially shorter period of time
[2]; FIG. 4
  CD45 and CD105 levels (percentage of CD105+CD45- cells): same CD45 and CD105 levels
[2]; FIG. 5
  VCAM1/CD106 expression (percentage of CD106+ cells): increase the fraction of CD106+ cells; also recorded: express more VCAM1/CD106 adhesion molecule
CD34+ cells
  ex vivo expansion of CD34+ cells: promote the ex vivo expansion of CD34+ cells
[3]
  action on the aryl hydrocarbon receptor: antagonizing
